Laboratory results as given in patent publication US10745399B2 (priority 2015, dated 2020).

These compounds were tested against mTOR (human) (Homo sapiens (Human), UniProt P42345) (assay: mTOR (human) radiometric kinase assay). Conditions: IC50 (ATM) at least 2000 times higher compared with IC50 (mTOR).
Assay type: biochemical
Method: mTOR (human) was incubated with 50 mM HEPES pH 7.5, 1 mM EGTA, 0.01% Tween 20, 2 mg/ml of the substrate, 3 mM MnCl2 and [γ-^33P-ATP] (specific activity approximately 500 cpm/pmol, concentration as necessary). The reaction was initiated by addition of MgATP solution. After incubation at room temperature for 40 minutes, the reaction was stopped by addition of 3% phosphoric acid. 10 μl of the reaction solution were then transferred dropwise onto a P30 filtermat and washed three times for 5 min in 75 mM phosphoric acid and once in methanol, dried and evaluated by means of liquid scintillation counting.

Structure (SMILES)	ratio IC50 (ATM):IC50(mTOR), selectivity with respect to mTOR
CCc1cncc(F)c1-n1c(=O)n(C)c2cnc3cc(OC)c(-c4cn[nH]n4)cc3c21 [compound 125, 1-(3-Ethyl-5-fluoropyridin-4-yl)-7-methoxy-3-methyl-8-(2H-1,2,3-triazol-4-yl)-1,3-dihydroimidazo[4,5-c] quinolin-2-one]	at least 2000 times
COc1cc2ncc3c(c2cc1-c1cnn(C)c1)n(-c1cc2[nH]ccc2cn1)c(=O)n3C [compound 120, 7-Methoxy-3-methyl-8-(1-methyl-1H-pyrazol-4-yl)-1-(1H-pyrrolo[3,2-c]pyridin-6-yl)-1,3-dihydroimidazo-[4,5-c]quinolin-2-one]	at least 2000 times
COc1cc2ncc3c(c2cc1-c1ccc2nc(C)[nH]c2c1)n(-c1c(F)cncc1OC)c(=O)n3C [compound 136, 1-(3-Fluoro-5-methoxy-pyridin-4-yl)-7-methoxy-3-methyl-8-(2-methyl-3H-benzoimidazol-5-yl)-1,3-dihydroimidazo[4,5-c]-quinolin-2-one]	at least 2000 times
COc1cc2ncc3c(c2cc1-c1cc[nH]n1)n(-c1cn(C)nc1C)c(=O)n3C [compound 121, 1-(1,3-Dimethyl-1H-pyrazol-4-yl)-7-methoxy-3-methyl-8-(1H-pyrazol-3-yl)-1,3-dihydroimidazo[4,5-c]-quinolin-2-one]	at least 2000 times
COc1ccc(-c2cc3c(cc2OC)ncc2c3n(-c3cn(C)nc3F)c(=O)n2C)cn1 [compound 159, 1-(3-Fluoro-1-methyl-1H-pyrazol-4-yl)-7-methoxy-8-(6-methoxypyridin-3-yl)-3-methyl-1,3-dihydroimidazo-[4,5-c]quinolin-2-one]	at least 2000 times
COc1cc2ncc3c(c2cc1-c1cnn(C)c1)n(-c1cn(C)nc1F)c(=O)n3C [compound 141, 1-(3-Fluoro-1-methyl-1H-pyrazol-4-yl)-7-methoxy-3-methyl-8-(1-methyl-1H-pyrazol-4-yl)-1,3-dihydro-imidazo[4,5-c]quinolin-2-one]	at least 2000 times

Second part, the compound after the results:

ratio IC50 (ATM):IC50(mTOR), selectivity with respect to mTOR	Structure (SMILES)
at least 2000 times	CCc1cnccc1-n1c(=O)n(C)c2cnc3cc(OC)c(-c4cnn(CC)c4)cc3c21 [compound 157, 8-(1-Ethyl-1H-pyrazol-4-yl)-1-(3-ethylpyridin-4-yl)-7-methoxy-3-methyl-1,3-dihydroimidazo[4,5-c] quinolin-2-one]
at least 2000 times	COc1cc2ncc3c(c2cc1-c1cnn(C)c1)n(-c1ncc(OCS(C)(=O)=O)cc1F)c(=O)n3C [compound 201, 1-(3-Fluoro-5-methyl-sulfonylmethoxypyridin-2-yl)-7-methoxy-3-methyl-8-(1-methyl-1H-pyrazol-4-yl)-1,3-dihydroimidazo[4,5-c]-quinolin-2-one]
at least 2000 times	COc1cc2ncc3c(c2cc1-c1cn(C)nc1C)n(-c1c(F)cncc1OC(F)F)c(=O)n3C [compound 147, 1-(3-Difluoromethoxy-5-fluoropyridin-4-yl)-8-(1,3-dimethyl-1H-pyrazol-4-yl)-7-methoxy-3-methyl-1,3-dihydroimidazo[4,5-c]-quinolin-2-one]
at least 2000 times	CNC(=O)c1cnc(-n2c(=O)n(C)c3cnc4cc(OC)c(-c5cnn(C)c5)cc4c32)c(F)c1 [compound 138, 5-Fluoro-6-[7-methoxy-3-methyl-8-(1-methyl-1H-pyrazol-4-yl)-2-oxo-2,3-dihydroimidazo[4,5-c]-quinolin-1-yl]-N-methyl-nicotinamid]
at least 2000 times	CCc1cncc(F)c1-n1c(=O)n(C)c2cnc3cc(OC)c(-c4cn(C)nn4)cc3c21 [compound 126, 1-(3-Ethyl-5-fluoropyridin-4-yl)-7-methoxy-3-methyl-8-(1-methyl-1H-1,2,3-triazol-4-yl)-1,3-dihydroimidazo-[4,5-c]quinolin-2-one]
